# Test results taken from patent US7186803B2, “Human vanilloid receptor VR3 protein” (Ortho-McNeil Pharmaceutical, Inc., priority 2000, dated 2007).
# Entries after “also recorded” stand apart in the source; their conditions may differ.
# Tests used:
# human VR3 A−B− = target: T1, human VR3 A−B− (Homo sapiens, UniProt Q9HBA0, DEL384-443/F526I); experiment: Two-electrode voltage clamp of Xenopus oocytes injected with VR3 A−B− cRNA, challenged with ligands; type: cell-based; settings: VR3 A−B− 1.5 ng injected per oocyte
# T1 construct: expressed in transfected cells; host or cells: Xenopus laevis oocytes injected with in vitro transcribed cRNA
# Experimental: When approximately 50% of the follicular layers were removed, Stage V and VI oocytes were selected and rinsed in media consisting of 75% OR-2 and 25% ND-96. The ND-96 contained: 100 mM NaCl, 2 mM KCl, 1 mM MgCl2, 1.8 mM CaCl2, 5 mM HEPES, 2.5 mM Na pyruvate, gentamicin (50 ug/ml), adjusted to pH 7.0 with NaOH.
# (§1) Oocytes were injected with 50 nl of the human VR3 receptor RNA (0.3–5 ng) with or without co-injection of VR1 (2–3 ng). Control oocytes were injected with 50 nl of water. Oocytes were incubated for 1–13 days in ND-96 before analysis for expression of the human VR3. Incubations and collagenase digestion were carried out at room temperature. Injected oocytes were maintained in 48 well cell culture clusters (Costar; Cambridge, Mass.) at 18° C. […] The microelectrodes were filled with 3 M KCl, which had resistances of 1 and 2 MΩ. Cells were continuously perfused with ND96 at ˜10 ml/min at room temperature unless indicated. Membrane voltage was clamped at −70 mV unless indicated.
# human VR3 A+B− = target: T2, human VR3 A+B− (Homo sapiens, UniProt Q9HBA0, F526I); experiment: Two-electrode voltage clamp of Xenopus oocytes injected with VR3 A+B− cRNA, challenged with ligands; type: cell-based; set-up: key: NE: no effect
# T2 construct: expressed in transfected cells; host or cells: Xenopus laevis oocytes injected with in vitro transcribed cRNA
# Experimental: (§2) Xenopus laevis oocytes were prepared and injected using standard methods previously described and known in the art (Fraser et al., 1993). Ovarian lobes from adult female Xenopus laevis (Nasco, Fort Atkinson, Wis.) were teased apart, rinsed several times in nominally Ca-free saline containing: 82.5 mM NaCl, 2.5 mM KCl, 1 mM MgCl2, 5 mM HEPES, adjusted to pH 7.0 with NaOH (OR-2), and gently shaken in OR-2 containing 0.2% collagenase Type 1 (ICN Biomedicals, Aurora, Ohio) for 2–5 hours. When approximately 50% of the follicular layers were removed, Stage V and VI oocytes were selected and rinsed in media consisting of 75% OR-2 and 25% ND-96. The ND-96 contained: 100 mM NaCl, 2 mM KCl, 1 mM MgCl2, 1.8 mM CaCl2, 5 mM HEPES, 2.5 mM Na pyruvate, gentamicin (50 ug/ml), adjusted to pH 7.0 with NaOH. […] For in vitro transcription, pGEM HE (Liman et al., 1992) containing human VR3 was linearized with NheI and transcribed with T7 RNA polymerase (Promega) in the presence of the cap analog m7G(5′)ppp(5′)G. The synthesized cRNA was precipitated with ammonium acetate and isopropanol, and resuspended in 50 μl nuclease-free water. cRNA was quantified using formaldehyde gels (1% agarose, 1×MOPS , 3% formaldehyde) against 1,2 and 5 μl RNA markers (Gibco BRL, 0.24–9.5 Kb).
# (§3) Oocytes were injected with 50 nl of the human VR3 receptor RNA (0.3–5 ng) with or without co-injection of VR1 (2–3 ng). Control oocytes were injected with 50 nl of water. Oocytes were incubated for 1–13 days in ND-96 before analysis for expression of the human VR3. Incubations and collagenase digestion were carried out at room temperature. Injected oocytes were maintained in 48 well cell culture clusters (Costar; Cambridge, Mass.) at 18° C. Whole cell agonist-induced currents were measured 1–14 days after injection with a conventional two-electrode voltage clamp (GeneClamp500, Axon Instruments, Foster City, Calif.) using standard methods previously described and known in the art (Dascal, 1987). The microelectrodes were filled with 3 M KCl, which had resistances of 1 and 2 MΩ. Cells were continuously perfused with ND96 at ˜10 ml/min at room temperature unless indicated. Membrane voltage was clamped at −70 mV unless indicated.
# (§4) Oocytes were challenged with a variety of ligands, low pH, and depolarizing as well as hyperpolarizing voltage steps but there were no detectable differences in membrane conductance between human VR3-expressing oocytes and control oocytes [see Table 1]. However, human VR3 injected oocytes had properties that were different from controls in 4 respects. First, injection of VR3 A+B− cRNA caused oocytes to die. […] Second, all three isoforms of VR3 enhanced the heat-induced response (FIG. 10). Third, A+B− co-injection with human VR1 produced a ruthenium red sensitive perfusion-induced current (Iperfusion) (FIG. 11).
# VR2 = target: T3, VR2 (Rattus norvegicus, UniProt Q9WUD2); settings: noxious temperatures (>53 deg C.), oocytes and HEK cells, cited from earlier work
# T3 construct: host or cells: oocytes and HEK cells (as reported)
# T3 sequence (Q9WUD2 1-761): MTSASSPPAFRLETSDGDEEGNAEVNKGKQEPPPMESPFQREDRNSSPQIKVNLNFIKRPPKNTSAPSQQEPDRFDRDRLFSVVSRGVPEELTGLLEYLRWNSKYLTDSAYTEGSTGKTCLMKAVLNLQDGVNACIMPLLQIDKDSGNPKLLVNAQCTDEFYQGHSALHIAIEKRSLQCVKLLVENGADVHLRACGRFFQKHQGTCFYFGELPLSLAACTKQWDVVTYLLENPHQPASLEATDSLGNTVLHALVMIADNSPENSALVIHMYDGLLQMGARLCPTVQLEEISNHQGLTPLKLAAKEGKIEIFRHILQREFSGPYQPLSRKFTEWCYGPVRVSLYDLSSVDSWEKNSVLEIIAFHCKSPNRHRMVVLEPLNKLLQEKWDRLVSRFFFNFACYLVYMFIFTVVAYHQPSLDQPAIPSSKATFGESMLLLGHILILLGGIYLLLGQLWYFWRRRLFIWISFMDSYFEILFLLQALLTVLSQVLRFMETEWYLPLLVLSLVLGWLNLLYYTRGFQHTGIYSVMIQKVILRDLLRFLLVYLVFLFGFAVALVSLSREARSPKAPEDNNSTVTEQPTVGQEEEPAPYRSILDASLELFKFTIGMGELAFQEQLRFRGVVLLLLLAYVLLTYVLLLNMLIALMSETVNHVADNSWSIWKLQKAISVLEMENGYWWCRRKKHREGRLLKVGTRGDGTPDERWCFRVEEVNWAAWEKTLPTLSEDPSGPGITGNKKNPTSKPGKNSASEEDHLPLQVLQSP
# human VR3 A+B+ = target: T4, human VR3 A+B+ (Homo sapiens, UniProt Q9HBA0); experiment: Two-electrode voltage clamp of Xenopus oocytes injected with VR3 A+B+ cRNA, challenged with ligands; type: cell-based; set-up: key: NE: no effect; settings: VR3 A+B+ 5 ng injected per oocyte
# T4 construct: expressed in transfected cells; host or cells: Xenopus laevis oocytes injected with in vitro transcribed cRNA
# Experimental: as §2, §3, §4
# [1] = target: T5, human VR1 together with human VR3 A+B− (Homo sapiens, UniProt Q8NER1); experiment: Capsaicin induced currents in oocytes expressing human VR1 with human VR3 A+B−; type: cell-based; settings: 1 uM capsaicin; VR1 and VR3 A+B− cRNA at equal ratios (2.9 ng each); holding voltage +50 mV
# T5 construct: expressed in transfected cells; host or cells: Xenopus laevis oocytes co-injected with VR1 and VR3 A+B− cRNA (2.9 ng each)
# Experimental: as §1
# capsaicin binding site = capsaicin binding site (Rattus norvegicus, UniProt O35433); settings: cited from earlier work
# [2] = 1 uM, VR3 A+B− 3.25–4 ng injected per oocyte (also 0.4 ng)
# [3] = 10 uM, VR3 A+B− 3.25–4 ng injected per oocyte (also 0.4 ng)
# [4] = 100 uM, VR3 A+B− 3.25–4 ng injected per oocyte
# T4 sequence (Q9HBA0 with tags, fused parts or gaps): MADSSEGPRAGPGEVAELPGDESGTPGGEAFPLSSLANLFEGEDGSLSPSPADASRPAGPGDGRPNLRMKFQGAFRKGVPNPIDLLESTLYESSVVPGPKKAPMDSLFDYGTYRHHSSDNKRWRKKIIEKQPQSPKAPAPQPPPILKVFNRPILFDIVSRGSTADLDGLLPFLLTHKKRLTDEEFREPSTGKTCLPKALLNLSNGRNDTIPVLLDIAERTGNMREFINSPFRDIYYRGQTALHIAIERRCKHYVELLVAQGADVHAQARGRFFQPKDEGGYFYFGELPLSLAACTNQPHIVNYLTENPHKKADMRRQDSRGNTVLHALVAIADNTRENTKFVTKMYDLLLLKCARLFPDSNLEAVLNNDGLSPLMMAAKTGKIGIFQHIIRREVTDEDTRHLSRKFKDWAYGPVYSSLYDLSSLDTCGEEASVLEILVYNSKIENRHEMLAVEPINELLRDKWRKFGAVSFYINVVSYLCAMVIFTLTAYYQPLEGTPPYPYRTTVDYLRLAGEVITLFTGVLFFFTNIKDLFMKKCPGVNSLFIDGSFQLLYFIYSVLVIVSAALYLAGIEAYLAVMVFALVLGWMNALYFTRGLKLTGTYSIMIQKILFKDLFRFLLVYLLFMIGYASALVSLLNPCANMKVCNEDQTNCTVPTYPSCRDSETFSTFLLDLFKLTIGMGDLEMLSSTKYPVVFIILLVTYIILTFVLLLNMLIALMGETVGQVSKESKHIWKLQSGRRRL
# T1 sequence (Q9HBA0 with tags, fused parts or gaps DEL384-443/F526I): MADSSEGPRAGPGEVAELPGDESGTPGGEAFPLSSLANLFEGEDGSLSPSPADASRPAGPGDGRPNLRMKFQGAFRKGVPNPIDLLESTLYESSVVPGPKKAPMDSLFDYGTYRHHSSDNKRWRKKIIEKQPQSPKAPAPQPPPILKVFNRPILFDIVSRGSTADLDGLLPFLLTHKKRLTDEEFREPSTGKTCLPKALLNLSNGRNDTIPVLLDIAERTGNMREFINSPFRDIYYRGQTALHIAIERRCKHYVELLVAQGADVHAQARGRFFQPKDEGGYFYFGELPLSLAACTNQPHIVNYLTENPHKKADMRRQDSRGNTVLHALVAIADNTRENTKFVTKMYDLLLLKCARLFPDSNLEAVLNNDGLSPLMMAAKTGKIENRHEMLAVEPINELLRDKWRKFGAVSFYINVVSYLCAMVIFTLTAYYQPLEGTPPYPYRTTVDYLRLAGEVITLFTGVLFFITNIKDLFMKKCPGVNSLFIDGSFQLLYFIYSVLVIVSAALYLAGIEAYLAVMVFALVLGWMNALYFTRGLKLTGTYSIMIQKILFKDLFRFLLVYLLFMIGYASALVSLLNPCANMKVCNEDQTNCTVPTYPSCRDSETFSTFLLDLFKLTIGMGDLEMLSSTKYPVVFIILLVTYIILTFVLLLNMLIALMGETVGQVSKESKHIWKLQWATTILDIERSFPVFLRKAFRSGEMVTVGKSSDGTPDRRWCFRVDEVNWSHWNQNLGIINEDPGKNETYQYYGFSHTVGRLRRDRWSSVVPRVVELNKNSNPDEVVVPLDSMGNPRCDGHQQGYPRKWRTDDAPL
# T2 sequence (Q9HBA0 whole entry F526I): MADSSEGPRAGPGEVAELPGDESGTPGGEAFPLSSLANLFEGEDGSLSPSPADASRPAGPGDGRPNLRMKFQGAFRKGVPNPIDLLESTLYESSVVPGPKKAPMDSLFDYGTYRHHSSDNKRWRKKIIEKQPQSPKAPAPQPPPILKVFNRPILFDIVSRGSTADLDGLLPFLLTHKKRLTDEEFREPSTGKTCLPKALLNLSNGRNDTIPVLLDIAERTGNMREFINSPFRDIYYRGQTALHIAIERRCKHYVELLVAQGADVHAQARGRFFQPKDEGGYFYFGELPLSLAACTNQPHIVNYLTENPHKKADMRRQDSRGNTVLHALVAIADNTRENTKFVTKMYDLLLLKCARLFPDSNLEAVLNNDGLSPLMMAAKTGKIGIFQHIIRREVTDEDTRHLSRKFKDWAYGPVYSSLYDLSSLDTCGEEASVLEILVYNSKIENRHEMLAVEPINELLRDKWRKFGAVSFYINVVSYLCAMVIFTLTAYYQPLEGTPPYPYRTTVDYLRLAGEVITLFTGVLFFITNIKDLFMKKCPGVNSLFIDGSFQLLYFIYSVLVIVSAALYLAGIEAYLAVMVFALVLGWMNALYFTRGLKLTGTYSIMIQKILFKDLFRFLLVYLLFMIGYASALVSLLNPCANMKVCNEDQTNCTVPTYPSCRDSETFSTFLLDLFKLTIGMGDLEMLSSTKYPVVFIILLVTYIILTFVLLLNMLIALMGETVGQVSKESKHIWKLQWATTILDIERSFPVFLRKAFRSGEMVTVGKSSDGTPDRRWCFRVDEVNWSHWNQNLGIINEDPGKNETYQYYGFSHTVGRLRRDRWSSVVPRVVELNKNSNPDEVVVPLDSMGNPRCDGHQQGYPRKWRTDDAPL
# T5 sequence (Q8NER1 whole entry): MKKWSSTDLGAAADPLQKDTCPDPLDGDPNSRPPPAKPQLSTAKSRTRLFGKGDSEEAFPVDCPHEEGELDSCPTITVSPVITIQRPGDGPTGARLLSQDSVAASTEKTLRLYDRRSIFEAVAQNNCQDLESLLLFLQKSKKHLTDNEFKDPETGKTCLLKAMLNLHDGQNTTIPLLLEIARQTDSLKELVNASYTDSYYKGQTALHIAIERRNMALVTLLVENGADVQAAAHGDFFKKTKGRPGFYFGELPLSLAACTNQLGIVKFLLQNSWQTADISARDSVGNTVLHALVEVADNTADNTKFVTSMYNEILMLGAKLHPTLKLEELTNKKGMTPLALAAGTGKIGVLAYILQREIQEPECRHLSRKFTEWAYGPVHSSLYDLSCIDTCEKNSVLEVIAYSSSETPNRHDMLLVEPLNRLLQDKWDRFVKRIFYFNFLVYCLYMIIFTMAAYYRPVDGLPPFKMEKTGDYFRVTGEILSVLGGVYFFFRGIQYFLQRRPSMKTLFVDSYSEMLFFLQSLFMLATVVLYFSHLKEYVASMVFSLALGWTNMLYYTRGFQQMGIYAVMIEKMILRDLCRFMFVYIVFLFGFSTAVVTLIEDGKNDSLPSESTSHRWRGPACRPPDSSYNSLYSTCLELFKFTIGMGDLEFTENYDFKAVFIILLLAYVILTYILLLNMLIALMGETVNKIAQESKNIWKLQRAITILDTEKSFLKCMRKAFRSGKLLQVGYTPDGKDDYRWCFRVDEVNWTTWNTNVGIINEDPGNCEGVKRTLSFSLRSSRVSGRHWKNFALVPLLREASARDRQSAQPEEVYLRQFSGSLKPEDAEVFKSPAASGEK
# capsaicin binding site, sequence (O35433 whole entry): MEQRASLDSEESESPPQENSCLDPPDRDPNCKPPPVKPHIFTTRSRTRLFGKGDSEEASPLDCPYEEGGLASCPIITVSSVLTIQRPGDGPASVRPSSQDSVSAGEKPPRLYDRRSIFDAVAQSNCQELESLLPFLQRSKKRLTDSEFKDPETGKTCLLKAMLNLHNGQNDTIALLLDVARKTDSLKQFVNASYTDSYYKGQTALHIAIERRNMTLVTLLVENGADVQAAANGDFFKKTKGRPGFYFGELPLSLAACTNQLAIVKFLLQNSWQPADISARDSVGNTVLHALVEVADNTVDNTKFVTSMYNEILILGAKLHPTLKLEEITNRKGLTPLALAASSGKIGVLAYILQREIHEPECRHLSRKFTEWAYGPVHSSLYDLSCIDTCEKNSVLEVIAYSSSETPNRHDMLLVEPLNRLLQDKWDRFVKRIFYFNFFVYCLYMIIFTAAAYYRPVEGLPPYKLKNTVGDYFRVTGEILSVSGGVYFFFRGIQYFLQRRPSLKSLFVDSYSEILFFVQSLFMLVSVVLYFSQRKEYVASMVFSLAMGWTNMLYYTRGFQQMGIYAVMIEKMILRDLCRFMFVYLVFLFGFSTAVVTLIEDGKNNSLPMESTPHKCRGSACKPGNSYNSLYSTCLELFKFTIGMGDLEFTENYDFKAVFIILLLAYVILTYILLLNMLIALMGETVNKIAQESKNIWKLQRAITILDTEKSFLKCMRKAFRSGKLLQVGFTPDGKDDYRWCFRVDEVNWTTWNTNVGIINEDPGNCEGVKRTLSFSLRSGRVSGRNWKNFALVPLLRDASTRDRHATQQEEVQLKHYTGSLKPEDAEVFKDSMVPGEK
compound,measurement,setting,value
CCCCC/C=C\C/C=C\C/C=C\C/C=C\CCCC(=O)NCCO [Anandamide],Effect of stimulus on membrane conductance vs control oocytes,human VR3 A−B−; 1.15 uM,NE: n = 1
same,Effect of stimulus on membrane conductance vs control oocytes,"human VR3 A+B−; 1.15 uM, VR3 A+B− 0.4 ng injected",NE: n = 3 (0.4 ng
CCCCC/C=C\C/C=C\C/C=C\C/C=C\CCCC(=O)O [Arachadonic acid],Effect of stimulus on membrane conductance vs control oocytes,human VR3 A−B−; 10 uM,NE: n = 3
"Oc1cc2c(cc1O)CN(C(=S)NCCc1ccc(Cl)cc1)CCC2 [CPZ, capsazepine]",Sensitivity of the VR2 heat response to CPZ,VR2,not sensitive
"COc1cc(CNC(=O)CCCCC=CC(C)C)ccc1O [Capsaicin, 8-methyl-N-vanillyl-6-nonenamide]",Effect of stimulus on membrane conductance vs control oocytes,human VR3 A+B+; 1 uM,NE: n = 3
same,Effect of stimulus on membrane conductance vs control oocytes,human VR3 A−B−; 1 uM,NE: n = 3
same,Effect of stimulus on membrane conductance vs control oocytes,human VR3 A+B−; [2],NE: n = 3 (n = 3 0.4 ng)
same,"Response to capsaicin when VR1 is co-expressed with VR3 A+B−, compared with VR1 alone",[1],altered the responsiveness; also recorded: diminished
C=CCc1ccc(O)c(OC)c1 [Eugenol],Effect of stimulus on membrane conductance vs control oocytes,human VR3 A+B+; 10 uM,NE: n = 3
same,Effect of stimulus on membrane conductance vs control oocytes,human VR3 A−B−; 10 uM,NE: n = 3
same,Effect of stimulus on membrane conductance vs control oocytes,human VR3 A+B−; [3],NE: n = 3 (n = 3 0.4 ng)
CCCCC[C@H](O)CC(=O)CCc1ccc(O)c(OC)c1 [Gingerol],Effect of stimulus on membrane conductance vs control oocytes,human VR3 A+B+; 10 uM,NE: n = 3
same,Effect of stimulus on membrane conductance vs control oocytes,human VR3 A−B−; 10 uM,NE: n = 3
same,Effect of stimulus on membrane conductance vs control oocytes,human VR3 A+B−; [3],NE: n = 3 (n = 1 0.4 ng)
COc1ccccc1O [Guiaicol],Effect of stimulus on membrane conductance vs control oocytes,human VR3 A+B+; 10 uM,NE: n = 3
same,Effect of stimulus on membrane conductance vs control oocytes,human VR3 A−B−; 10 uM,NE: n = 3
same,Effect of stimulus on membrane conductance vs control oocytes,human VR3 A+B−; [3],NE: n = 3 (n = 1 0.4 ng)
CCCCCCCC/C=C\CCCCCCCC(=O)NCc1ccc(O)c(OC)c1 [Olvanil],Effect of stimulus on membrane conductance vs control oocytes,human VR3 A+B+; 10 uM,NE: n = 3
same,Effect of stimulus on membrane conductance vs control oocytes,human VR3 A−B−; 10 uM,NE: n = 3
same,Effect of stimulus on membrane conductance vs control oocytes,human VR3 A+B−; [3],NE: n = 3 (n = 1 0.4 ng)
"C=C(C)[C@]12C[C@@H](C)[C@@]34O[C@](Cc5ccccc5)(O[C@@H]1[C@@H]3C=C(COC(=O)Cc1ccc(O)c(OC)c1)C[C@]1(O)C(=O)C(C)=C[C@@H]41)O2 [Resiniferatoxin, resiniferatoxin]",Effect of stimulus on membrane conductance vs control oocytes,human VR3 A+B+; 1 uM,NE: n = 3
same,Effect of stimulus on membrane conductance vs control oocytes,human VR3 A−B−; 1 uM,NE: n = 3
same,Binding affinity at the capsaicin binding site,capsaicin binding site,nanomolar affinity
same,Effect of stimulus on membrane conductance vs control oocytes,human VR3 A+B−; [2],NE: n = 3 (n = 1 0.4 ng)
N.N.N.N.N.N.N.N.N.N.N.N.N.N.[Cl-].[Cl-].[Cl-].[Cl-].[Cl-].[Cl-].[O-2].[O-2].[Ru+3].[Ru+3].[Ru+4] [ruthenium red],Block of the VR2 heat response,VR2; 10 μM ruthenium red,nearly completely blocked
NCCc1ccccc1 [β-phenylethylamine],Effect of stimulus on membrane conductance vs control oocytes,human VR3 A+B−; [4],NE: n = 2
O=C(O)CCCO [γ-hydroxybutyrate],Effect of stimulus on membrane conductance vs control oocytes,human VR3 A+B−; [4],NE: n = 2
